From patent US11746139B2, “IL-7Rαγc binding compounds” (MEDIKINE, INC., priority 2020, dated 2023)
pIC50: −log10 of the molar value.

Columns and labels:
[1] = biological target: IL-7Rα (Homo sapiens, UniProt P16871); assay: Competition binding ELISA with bn407::NA-HRP precomplex; details: bn407:NA-HRP 10 nM final; read-out: Competitive Binding ELISA bn407:NA-HRP (10 nMf) IC50 M
[2] = biological target: T1, Rγc subunit (Homo sapiens, UniProt P31785); assay: Alanine scan competition binding assay, binding to Rγc subunit; details: alanine scan peptides
T1 construct: purchased ACRObiosystems, Inc. ILG-H5256
T1 sequence (P31785 23-254): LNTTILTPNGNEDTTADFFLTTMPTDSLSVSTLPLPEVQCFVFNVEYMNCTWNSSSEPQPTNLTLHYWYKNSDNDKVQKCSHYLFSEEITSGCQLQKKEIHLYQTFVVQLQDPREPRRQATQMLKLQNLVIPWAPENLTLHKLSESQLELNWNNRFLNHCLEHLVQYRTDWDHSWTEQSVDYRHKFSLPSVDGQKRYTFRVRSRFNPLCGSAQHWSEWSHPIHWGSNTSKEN

[3] = biological target: T2, IL-7Rα subunit (Homo sapiens, UniProt P16871); assay: Phage competitive binding assay characterizing the IL-7Rα ligand binding site
T2 sequence (P16871 21-236): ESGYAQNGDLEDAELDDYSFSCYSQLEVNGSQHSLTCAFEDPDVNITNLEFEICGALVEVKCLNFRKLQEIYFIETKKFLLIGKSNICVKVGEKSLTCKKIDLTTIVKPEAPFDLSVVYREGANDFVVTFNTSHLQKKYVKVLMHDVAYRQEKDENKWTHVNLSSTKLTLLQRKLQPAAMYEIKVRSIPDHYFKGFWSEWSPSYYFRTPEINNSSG

[4] = biological target: T2, IL-7Rα subunit; assay: Competition of IL-7Rα ligands with IL-7 for binding to IL-7Rα

Sequence of IL-7Rα (P16871 21-236): as above

Molecule | pIC50 [1] | IC50 [2] | other results
CC[C@H](C)[C@H](N)C(=O)N1CCC[C@H]1C(=O)N[C@@H](Cc1c[nH]c2ccccc12)C(=O)N[C@H]1CSSC[C@@H](C(=O)N[C@@H](C)C(=O)N[C@@H](Cc2c[nH]c3ccccc23)C(=O)N[C@@H](CC(C)C)C(=O)N[C@@H](CCCCN)C(=O)N[C@@H](CCC(N)=O)C(=O)N[C@@H](CCSC)C(=O)NCC(=O)NCC(=O)O)NC(=O)[C@H](CCC(N)=O)NC(=O)[C@H](CC(C)C)NC(=O)CNC(=O)CNC(=O)[C@@H]2CCCN2C(=O)[C@H](CC(=O)O)NC(=O)[C@H](CC(C)C)NC(=O)[C@H]([C@@H](C)O)NC1=O [SEQ ID NO: 429, I P W C T L D P G G L Q C A W L K Q M] | 6.33 | – | –
CC[C@H](C)[C@H](N)C(=O)N1CCC[C@H]1C(=O)N[C@@H](Cc1c[nH]c2ccccc12)C(=O)N[C@H]1CSSC[C@@H](C(=O)N[C@@H](C)C(=O)N[C@@H](Cc2c[nH]c3ccccc23)C(=O)N[C@@H](CC(C)C)C(=O)N[C@@H](Cc2c[nH]cn2)C(=O)N[C@@H](CCC(N)=O)C(=O)N[C@@H](CCSC)C(=O)NCC(=O)NCC(=O)O)NC(=O)[C@H](CCC(N)=O)NC(=O)[C@H](CC(C)C)NC(=O)CNC(=O)CNC(=O)[C@@H]2CCCN2C(=O)[C@H](CC(=O)O)NC(=O)[C@H](CC(C)C)NC(=O)[C@H]([C@@H](C)O)NC1=O [SEQ ID NO: 430, I P W C T L D P G G L Q C A W H K Q M] | 6.17 | – | –
CC[C@H](C)[C@H](N)C(=O)N1CCC[C@H]1C(=O)N[C@@H](Cc1c[nH]c2ccccc12)C(=O)N[C@H]1CSSC[C@@H](C(=O)N[C@@H](C)C(=O)N[C@@H](Cc2c[nH]c3ccccc23)C(=O)N[C@@H](CC(C)C)C(=O)N[C@@H](CCCNC(=N)N)C(=O)N[C@@H](C)C(=O)N[C@@H](CCSC)C(=O)NCC(=O)NCC(=O)O)NC(=O)[C@H](CCC(N)=O)NC(=O)[C@H](CC(C)C)NC(=O)CNC(=O)CNC(=O)[C@@H]2CCCN2C(=O)[C@H](CC(=O)O)NC(=O)[C@H](CC(C)C)NC(=O)[C@H]([C@@H](C)O)NC1=O [SEQ ID NO: 431, I P W C T L D P G G L Q C A W L R A M] | 6.28 | – | –
CC[C@H](C)[C@H](N)C(=O)N1CCC[C@H]1C(=O)N[C@@H](Cc1c[nH]c2ccccc12)C(=O)N[C@H]1CSSC[C@@H](C(=O)N[C@@H](C)C(=O)N[C@@H](Cc2c[nH]c3ccccc23)C(=O)N[C@@H](CC(C)C)C(=O)N[C@@H](CCCNC(=N)N)C(=O)N[C@@H](CCC(N)=O)C(=O)N[C@@H](C)C(=O)NCC(=O)NCC(=O)O)NC(=O)[C@H](CCC(N)=O)NC(=O)[C@H](CC(C)C)NC(=O)CNC(=O)CNC(=O)[C@@H]2CCCN2C(=O)[C@H](CC(=O)O)NC(=O)[C@H](CC(C)C)NC(=O)[C@H]([C@@H](C)O)NC1=O [SEQ ID NO: 432, I P W C T L D P G G L Q C A W L R Q A] | 6.03 | – | –
CC[C@H](C)[C@H](N)C(=O)N1CCC[C@H]1C(=O)N[C@@H](Cc1c[nH]c2ccccc12)C(=O)N[C@H]1CSSC[C@@H](C(=O)N[C@@H](C)C(=O)N[C@@H](Cc2c[nH]c3ccccc23)C(=O)N[C@@H](CC(C)C)C(=O)N[C@@H](CCCNC(=N)N)C(=O)N[C@@H](C)C(=O)N[C@@H](C)C(=O)NCC(=O)NCC(=O)O)NC(=O)[C@H](CCC(N)=O)NC(=O)[C@H](CC(C)C)NC(=O)CNC(=O)CNC(=O)[C@@H]2CCCN2C(=O)[C@H](CC(=O)O)NC(=O)[C@H](CC(C)C)NC(=O)[C@H]([C@@H](C)O)NC1=O [SEQ ID NO: 433, I P W C T L D P G G L Q C A W L R A A] | 5.97 | – | –
CC[C@H](C)[C@H](N)C(=O)N1CCC[C@H]1C(=O)N[C@@H](Cc1c[nH]c2ccccc12)C(=O)N[C@H]1CSSC[C@@H](C(=O)N[C@@H](C)C(=O)N[C@@H](Cc2c[nH]c3ccccc23)C(=O)N[C@@H](CC(C)C)C(=O)N[C@@H](C)C(=O)N[C@@H](C)C(=O)N[C@@H](C)C(=O)NCC(=O)NCC(=O)O)NC(=O)[C@H](CCC(N)=O)NC(=O)[C@H](CC(C)C)NC(=O)CNC(=O)CNC(=O)[C@@H]2CCCN2C(=O)[C@H](CC(=O)O)NC(=O)[C@H](CC(C)C)NC(=O)[C@H]([C@@H](C)O)NC1=O [SEQ ID NO: 434, I P W C T L D P G G L Q C A W L A A A] | 6.22 | – | –
CC(C)C[C@@H]1NC(=O)[C@H](CCC(=O)O)NC(=O)[C@H](C(C)C)NC(=O)CNC(=O)[C@H](CCC(=O)O)NC(=O)[C@H](Cc2c[nH]c3ccccc23)NC(=O)[C@H](CC(=O)O)NC(=O)[C@H](CCC(N)=O)NC(=O)[C@@H](NC(=O)[C@@H](NC(=O)[C@@H](NC(=O)CNC(=O)CN)C(C)C)C(C)C)CSSC[C@@H](C(=O)N[C@@H](Cc2c[nH]c3ccccc23)C(=O)N[C@@H](CCC(N)=O)C(=O)NCC(=O)NCC(=O)O)NC1=O [SEQ ID NO: 1031, G G V V C Q D W E G V E L C W Q G G] | – | < 50 nM | –
CC(C)C[C@@H]1NC(=O)[C@H](CCC(=O)O)NC(=O)[C@H](C(C)C)NC(=O)CNC(=O)[C@H](CCC(=O)O)NC(=O)[C@H](Cc2c[nH]c3ccccc23)NC(=O)[C@H](CC(=O)O)NC(=O)[C@H](C)NC(=O)[C@@H](NC(=O)[C@@H](NC(=O)[C@@H](NC(=O)CNC(=O)CN)C(C)C)C(C)C)CSSC[C@@H](C(=O)N[C@@H](Cc2c[nH]c3ccccc23)C(=O)N[C@@H](CCC(N)=O)C(=O)NCC(=O)NCC(=O)O)NC1=O [SEQ ID NO: 1032, G G V V C A D W E G V E L C W Q G G] | – | < 100 nM | –
CC(C)C[C@@H]1NC(=O)[C@H](CCC(=O)O)NC(=O)[C@H](C(C)C)NC(=O)CNC(=O)[C@H](CCC(=O)O)NC(=O)[C@H](Cc2c[nH]c3ccccc23)NC(=O)[C@H](C)NC(=O)[C@H](CCC(N)=O)NC(=O)[C@@H](NC(=O)[C@@H](NC(=O)[C@@H](NC(=O)CNC(=O)CN)C(C)C)C(C)C)CSSC[C@@H](C(=O)N[C@@H](Cc2c[nH]c3ccccc23)C(=O)N[C@@H](CCC(N)=O)C(=O)NCC(=O)NCC(=O)O)NC1=O [SEQ ID NO: 1033, G G V V C Q A W E G V E L C W Q G G] | – | < 50 nM | –
CC(C)C[C@@H]1NC(=O)[C@H](CCC(=O)O)NC(=O)[C@H](C(C)C)NC(=O)CNC(=O)[C@H](CCC(=O)O)NC(=O)[C@H](C)NC(=O)[C@H](CC(=O)O)NC(=O)[C@H](CCC(N)=O)NC(=O)[C@@H](NC(=O)[C@@H](NC(=O)[C@@H](NC(=O)CNC(=O)CN)C(C)C)C(C)C)CSSC[C@@H](C(=O)N[C@@H](Cc2c[nH]c3ccccc23)C(=O)N[C@@H](CCC(N)=O)C(=O)NCC(=O)NCC(=O)O)NC1=O [SEQ ID NO: 1034, G G V V C Q D A E G V E L C W Q G G] | – | < 2000 nM | –
CC(C)C[C@@H]1NC(=O)[C@H](CCC(=O)O)NC(=O)[C@H](C(C)C)NC(=O)CNC(=O)[C@H](C)NC(=O)[C@H](Cc2c[nH]c3ccccc23)NC(=O)[C@H](CC(=O)O)NC(=O)[C@H](CCC(N)=O)NC(=O)[C@@H](NC(=O)[C@@H](NC(=O)[C@@H](NC(=O)CNC(=O)CN)C(C)C)C(C)C)CSSC[C@@H](C(=O)N[C@@H](Cc2c[nH]c3ccccc23)C(=O)N[C@@H](CCC(N)=O)C(=O)NCC(=O)NCC(=O)O)NC1=O [SEQ ID NO: 1035, G G V V C Q D W A G V E L C W Q G G] | – | < 50 nM | –
CC(C)C[C@@H]1NC(=O)[C@H](CCC(=O)O)NC(=O)[C@H](C(C)C)NC(=O)[C@H](C)NC(=O)[C@H](CCC(=O)O)NC(=O)[C@H](Cc2c[nH]c3ccccc23)NC(=O)[C@H](CC(=O)O)NC(=O)[C@H](CCC(N)=O)NC(=O)[C@@H](NC(=O)[C@@H](NC(=O)[C@@H](NC(=O)CNC(=O)CN)C(C)C)C(C)C)CSSC[C@@H](C(=O)N[C@@H](Cc2c[nH]c3ccccc23)C(=O)N[C@@H](CCC(N)=O)C(=O)NCC(=O)NCC(=O)O)NC1=O [SEQ ID NO: 1036, G G V V C Q D W E A V E L C W Q G G] | – | < 100 nM | –
CC(C)C[C@@H]1NC(=O)[C@H](CCC(=O)O)NC(=O)[C@H](C)NC(=O)CNC(=O)[C@H](CCC(=O)O)NC(=O)[C@H](Cc2c[nH]c3ccccc23)NC(=O)[C@H](CC(=O)O)NC(=O)[C@H](CCC(N)=O)NC(=O)[C@@H](NC(=O)[C@@H](NC(=O)[C@@H](NC(=O)CNC(=O)CN)C(C)C)C(C)C)CSSC[C@@H](C(=O)N[C@@H](Cc2c[nH]c3ccccc23)C(=O)N[C@@H](CCC(N)=O)C(=O)NCC(=O)NCC(=O)O)NC1=O [SEQ ID NO: 1037, G G V V C Q D W E G A E L C W Q G G] | – | < 2000 nM | –
CC(C)C[C@@H]1NC(=O)[C@H](C)NC(=O)[C@H](C(C)C)NC(=O)CNC(=O)[C@H](CCC(=O)O)NC(=O)[C@H](Cc2c[nH]c3ccccc23)NC(=O)[C@H](CC(=O)O)NC(=O)[C@H](CCC(N)=O)NC(=O)[C@@H](NC(=O)[C@@H](NC(=O)[C@@H](NC(=O)CNC(=O)CN)C(C)C)C(C)C)CSSC[C@@H](C(=O)N[C@@H](Cc2c[nH]c3ccccc23)C(=O)N[C@@H](CCC(N)=O)C(=O)NCC(=O)NCC(=O)O)NC1=O [SEQ ID NO: 1038, G G V V C Q D W E G V A L C W Q G G] | – | < 50 nM | –
CC(C)[C@@H]1NC(=O)CNC(=O)[C@H](CCC(=O)O)NC(=O)[C@H](Cc2c[nH]c3ccccc23)NC(=O)[C@H](CC(=O)O)NC(=O)[C@H](CCC(N)=O)NC(=O)[C@@H](NC(=O)[C@@H](NC(=O)[C@@H](NC(=O)CNC(=O)CN)C(C)C)C(C)C)CSSC[C@@H](C(=O)N[C@@H](Cc2c[nH]c3ccccc23)C(=O)N[C@@H](CCC(N)=O)C(=O)NCC(=O)NCC(=O)O)NC(=O)[C@H](C)NC(=O)[C@H](CCC(=O)O)NC1=O [SEQ ID NO: 1039, G G V V C Q D W E G V E A C W Q G G] | – | < 5000 nM | –
G G V P W C T L D P G S L Q C A W F [SEQ ID NO: 313] | – | – | Competition with Phage Clone SEQ ID NO: 5 (Family 1) for binding to the IL-7Rα subunit ([3]; phage clone 5, immobilized IL-7Rα ECD): + (IL-7Rα ligand competes with phage binding.); Competition with Phage Clone SEQ ID NO: 43 (Family 3A) for binding to the IL-7Rα subunit ([3]; phage clone 43, immobilized IL-7Rα ECD): + (IL-7Rα ligand competes with phage binding.); Competition with Phage Clone SEQ ID NO: 104 (Family 3B) for binding to the IL-7Rα subunit ([3]; phage clone 104, immobilized IL-7Rα ECD): + (IL-7Rα ligand competes with phage binding.); Competition with Phage Clone SEQ ID NO: 313 (Family 2) for binding to the IL-7Rα subunit ([3]; phage clone 313, immobilized IL-7Rα ECD): + (IL-7Rα ligand competes with phage binding.); Competitive binding with IL-7 binding to IL-7Rα [4]: do not bind competitively
